Results from paper PMC6755732, “Structural, Biochemical, and In Vivo Characterization of MtrR-Mediated Resistance to Innate Antimicrobials by the Human Pathogen Neisseria gonorrhoeae” (Journal of Bacteriology, 2019).

Assays:
[1] = CAPS buffer; no reference given; cited from earlier work
MtrR-mtrCDE promoter = biological target: T1, MtrR-mtrCDE promoter (Neisseria gonorrhoeae, UniProt P39897); type: biochemical; details: 10 mM CAPS, pH 8.0
T1 construct: nearly all 210 residues of each protomer observed, with the exception of residues 1 through 7; hexahistidine tag (thrombin-cleavable) (cleaved yes); made in house
T1 sequence (P39897 whole entry): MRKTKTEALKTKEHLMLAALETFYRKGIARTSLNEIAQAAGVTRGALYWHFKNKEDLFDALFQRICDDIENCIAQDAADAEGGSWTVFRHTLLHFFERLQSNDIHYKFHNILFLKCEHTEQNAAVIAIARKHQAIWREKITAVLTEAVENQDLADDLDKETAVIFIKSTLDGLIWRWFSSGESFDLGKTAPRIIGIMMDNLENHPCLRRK
Method: Thus, to rule out any effect of alkaline pH on MtrR-DNA interactions, we buffered the CAPS used in the FP assay to pH 8.0 before testing its effect on DNA binding.
Fluorescence polarization-based DNA binding experiments were performed with a Panvera Beacon 2000 fluorescence polarization system (Invitrogen) utilizing 5′-fluorescein-labeled DNA. Polarization (P) of such 5′-labeled DNA increases as a function of protein binding, and equilibrium dissociation constants are determined by curve fitting the values of millipolarization (P × 10^−3) units against the protein concentration. To determine the effects of various ligands on MtrR-DNA binding, 1 nM 5′-fluoresceinated oligodeoxynucleotide duplexes containing the mtrC operator site in 1 ml binding buffer (20 mM Tris HCl [pH 8.0], 100 mM NaCl, and 2.5% glycerol) were titrated against increasing concentrations of purified MtrR in the presence or absence of the indicated concentrations of bile salt, and the resulting changes in polarization were measured. All the samples were excited at 490 nm, and their polarized emissions were measured at 530 nm. All the data were plotted using Kaleidagraph (Synergy Software) and Prism (GraphPad Software), and the resulting plots were fitted to the following equation: P = {(Pbound − Pfree)[protein]/(KD + [protein])} + Pfree, where P is the polarization measured at a given protein concentration, Pfree is the initial polarization of the free ligand, Pbound is the maximum polarization of specifically bound ligand, KD is the equilibrium dissociation constant, and [protein] is the protein concentration. Nonlinear least-squares analysis was used to determine Pbound, and Kd. The reported binding constants are the average values from at least three independent experimental measurements.

**Q.** For `O=S(=O)(O)CCCNC1CCCCC1` [CAPS, N-cyclohexyl-3-aminopropanesulfonic acid], which pKa [1] is on record?
**A.** Its pKa is ~10.5.

**Q.** And the “Fold reduction of MtrR affinity for the mtrC operator sequence” value (MtrR-mtrCDE promoter)?
**A.** The value was > 300 fold.
